According to patent US11976280B2, “SMAC/Diablo inhibitors useful for treating cancer” (THE NATIONAL INSTITUTE FOR BIOTECHNOLOGY IN THE NEGEV LTD., priority 2017, dated 2024):
d = 2'-deoxy (DNA); r = 2'-OH (RNA)

Key:
A549 cells = assay: Ki-67 positive cells, immunofluorescence staining; assay type: cell-based, human; settings: 50 nM
A549 cells xenograft = assay: Sub-cutaneous A549 lung cancer xenograft in nude mice, intratumoral siRNA; assay type: in vivo; settings: for decrease in tumor size at the end point: every 3 days; for decrease in tumor weight: 39 days post-cell inoculation
Protocol: Five-week-old male athymic Swiss nude mice (weight ˜19-22 g) were obtained from Envigo and allowed a week of acclimatization to their new surroundings. Lung cancer cells A549 (3×10^6), or breast cancer cells MDA-MB231 (3×10^6) were injected subcutaneous (s.c.) into the hind leg flanks of the mice. Approval for the experimental protocol was obtained from the Institutional Animal Care and Use Committee of the Soroka University Medical Center. Eleven days after inoculation, the developing tumors were measured in two dimensions with a digital caliper and tumor volume was calculated as follows: volume=X^2×Y/2, where X and Y are the short and long tumor dimensions, respectively. Mice with xenografts reaching a volume of 65-100 mm^3 were randomized to receive either non-targeting (NT) siRNA or siRNA targeted to human hSMAC (si-hSMAC); 5 animals in each group. Tumors and section thereof that received NT siRNA are designated si-NT-TTs (siRNA non-targeting treated tumors) and tumors and section thereof that received hSMAC siRNA are designated si-hSMAC-TTs (siRNA hSMAC treated tumors). Treatment substances were injected into the established s.c. tumors using the jetPEI delivery reagent (10 μg siRNA/20 μl jetPEI). The tumors were injected (at a volume equal to 10 to 20% of the tumor volume) with si-NT or the appropriate si-hSMAC every three days. Beginning on the day of inoculation, mouse weight and tumor volume were monitored twice a week using a digital caliper. At the end of the experiment, i.e. when tumor volume reached approximately 1300 mm^3, the mice were sacrificed using CO2 gas, the tumors were excised and ex vivo weight was determined. Half of each tumor was fixed in 4% buffered formaldehyde, paraffin-embedded and processed for histological examination, while the second half was frozen in liquid nitrogen and stored in −80° C. for immunoblot analysis.
Tissue microarrays (MC5003, LC807) containing cancer and normal tissues purchased from US Biomax (US Biomax, Inc. USA) and formalin-fixed and paraffin-embedded tumor sections were immunohistochemistry (IHC) stained. Sections were deparaffinized using xylene and a graded ethanol series. Endogenous peroxidase activity was blocked by incubating the sections in 3% H2O2 for 10 minutes. Antigen retrieval was performed in 0.01M citrate buffer (pH 6.0) in 95° C.-98° C. for 20 minutes. After washing sections with PBS containing 0.1% Triton-X100 (pH 7.4), non-specific antibody binding was reduced by incubating the sections in 10% normal goat serum for 2 hr. After decanting excess serum, sections were incubated overnight at 4° C. with primary antibodies (sources and dilutions are detailed in Supplementary Table 1). Sections were washed with PBST. For IHC, endogenous peroxidase activity was blocked by incubating the sections in 3% H2O2 for […]. After washing thoroughly with PBST, the sections were incubated for 2 h with anti-mouse or anti rabbit (1:250) secondary antibodies conjugated to HRP, as appropriate. Sections were washed five times in PBST and the peroxidase reaction was subsequently visualized by incubating with 3,3-diaminobenzidine (DAB) (ImmPact-DAB, Burlingame, CA). After rinsing in water, the sections were counterstained with hematoxylin, and mounted with Vectashield mounting medium (Vector Laboratories, Burigame, CA). Finally, the sections were observed under a microscope (Leica DM2500) and images were collected at 20× magnification with the same light intensity and exposure time.
The effect of si-hSMAC-A was tested on a sub-cutaneous (s.c) tumor xenograft of A549 cells established in nude mice (FIG. 4). Following tumor formation (75-90 mm^3), the mice were divided into three matched groups, and injected every 3 days with either si-NT (group 1) or si-hSMAC-A at 350 nM (group 2) or 700 nM (group 3). Tumor growth was followed for 39 days (FIG. 4A).
All mice were sacrificed 39 days post-cell inoculation, and the tumors were excised (FIG. 4B) and weighed (FIG. 4C). […]

Substance: si-hSMAC-A: siRNA to human SMAC/Diablo; sense 5′AAGCGGUGUUUCUCAGAAUUGtt3′ (SEQ ID NO:20), antisense 5′AACAAUUCUGAGAAACCCGCtt3′ (SEQ ID NO:21) (sense AAGCGGUGUUUCUCAGAAUUGTT; antisense AACAAUUCUGAGAAACCCGCTT; sense: sugars from the 5' end r21 d2, backbone not given here; antisense: sugars from the 5' end r20 d2, backbone not given here)
- decrease in Ki-67 positive cells (A549 cells): about 85%
- decrease in tumor size at the end point (A549 cells xenograft; 350 nM): 50%
- decrease in tumor weight (A549 cells xenograft; 350 nM): 40%
- decrease in tumor size at the end point (A549 cells xenograft; 700 nM): 85%
- decrease in tumor weight (A549 cells xenograft; 700 nM): 75%
- decrease in Ki-67 expression levels in tumors (A549 cells xenograft; IHC staining or q-PCR): ~80%
- anti-SMAC/Diablo IHC staining of tumor sections (A549 cells xenograft; mouse, in vivo): very weak
